Experimental data taken from US20050277575A1, “Therapeutic compositions and methods for treating diseases that involve angiogenesis” (priority 2004, published 2005).

Test system: Human cerebral endothelial cells (HCEC)
Experiment: Capillary tube formation in Matrigel, S100A4 induced angiogenesis
Type: cell-based
Details: primary HCEC grown in Matrigel
Text: Human cerebral endothelial cells (HCEC) were isolated using previously described protocols (Stanimirovic, D., P. Morley, et al. (1996). “Angiotensin II-induced fluid phase endocytosis in human cerebromicrovascular endothelial cells is regulated by the inositol-phosphate signaling pathway.” J Cell Physiol 169(3): 455-67.). Purity of HCEC cultures generated by these procedures was routinely assessed by the immunocytochemical staining for Factor VIII-related antigen and the lack of staining for smooth muscle β-actin, and is estimated to be >95%. The morphological, phenotypic, biochemical and functional characteristics of these HCEC cultures have been described in detail previously (Muruganandam, A., L. M Herx, et al. (1997). “Development of immortalized human cerebromicrovascular endothelial cell line as an in vitro model of the human blood-brain barrier.” Faseb J 11(13): 1187-97).
HCEC were seeded (8×10^4 cells) on a semi-solid basement membrane matrix, Matrigel™ (Collaborative Biomedical Products, Bedford, Mass.)-coated 24-well plates and exposed to serum-free media containing various treatments. […] Confocal apertures for each recorded wavelength were adjusted to a full width half maximum of 20 μm. […] Eight to 32 individual optical sections were collected and the average was calculated. […]

## S100A4: recombinant human S100A4 protein cloned from human placenta total RNA, Ca-binding protein of S100 family
  concentration of S100A4 from which angiogenesis is induced: ≥ 10 nM
